From patent US4551547A, “Biocidal 2-aryl-1, 3-cyclopentanedione enol ester compounds” (Union Carbide Corporation, priority 1983, dated 1985)

Experiments:
Bean = experiment: Post-emergent herbicidal test, bean; type: in vivo; set-up: key: 1: no perceptible injury; 2: intermediate degrees of injury; 3: intermediate degrees of injury; 4: intermediate degrees of injury; 5: the plant was dead; conditions: Table II; 2500 parts per million, after ten days
Protocol: (§1) Suspensions of the test compounds were prepared by dissolving one gram of compound in 50 milliliters of acetone in which had been dissolved 0.1 gram (10 percent of the weight of compound) of an alkylphenoxyethanol sufactant, as an emulsifying or dispersing agent. The resulting solution was mixed into 160 milliliters of water to give roughly 200 milliliters of a suspension containing the compound in finely divided form. The thus prepared stock suspension contained 0.5 percent by weight of compound. The test concentrations employed in the tests described below were obtained by diluting the stock suspension with water. The test procedures were as follows:
(§2) Experiments were also conducted to determine the phytotoxicity of representative compositions with respect to healthy fresh plants. Solutions of the compounds were prepared as described above to provide a concentration of 2500 parts per million of the test compound. The test plants were sprayed in accordance with the procedure described above for the Mite Foliage Spray Test so as to deliver approximately 100 milliliters of test solutions to the leaves of each plant tested. The sprayed plants and controls were set aside for approximately one hour to allow the solutions to dry and were then placed in the greenhouse. After ten days the plants were visually inspected to determine the extent of foliage injury. A rating of 1 indicates no perceptible injury; 5 indicates the plant was dead and ratings of 2, 3 and 4 indicate intermediate degrees of injury based upon the number and extent to which leaves were injured.

[1] = tested on: Red root pigweed (Amaranthus); experiment: Preliminary herbicide seed germination test (pre-emergent), red root pigweed; type: in vivo, Amaranthus retroflexus; set-up: key: 5: no seedling emerged; 4: few seedlings emerged and/or very severe stunting; 3: moderate reduction in stand and/or moderate stunting.; 2: very slight reduction in stand and/or slight stunting; 1: no injury, seedlings appear no different with respect to stand or growth than untreated controls; conditions: Table II; ten to twelve days after application
Protocol: as §1
(§3) The following seeds were used in this test:
Red root pigweed--Amaranthus retroflexus
(§4) Two […] mixtures were prepared as follows:
(§5) Each of the above mixtures was rolled separately in 5 gallon containers for approximately one-half hour on ball mill to insure uniform mixing of seeds and soil. For each compound four 3-inch pots were filled with soil to within 11/2 inches of top of pots. To two of these pots were added 70 cc. of Mixture I. To the remaining 2 pots were added 70 cc. of Mixture II. The seed-soil mixture was tamped firmly, and the pots were removed to the greenhouse and watered lightly. About 2 hours after planting, 25 milliliters of the test formulation were added to one pot containing Mixture I and one pot containing Mixture II. An equal volume of a water solution containing acetone and an emulsifier in the same concentration as the herbicidal mixture but without the candidate herbicide was also added to each of the soil-seed mixtures. These pots are used as check or control units. The test compounds were formulated by diluting the stock suspension with water to obtain the desired concentration of the compound in parts per million of the final formulation. Each compound was tested at the same concentration. […] Ratings were made according to the following designations: […]

Crabgrass = experiment: Preliminary herbicide seed germination test (pre-emergent), crabgrass; type: in vivo, Digitaria sanguinalis; set-up: key: 5: no seedling emerged; 4: few seedlings emerged and/or very severe stunting; 3: moderate reduction in stand and/or moderate stunting.; 2: very slight reduction in stand and/or slight stunting; 1: no injury, seedlings appear no different with respect to stand or growth than untreated controls; conditions: Table II; ten to twelve days after application
Protocol: as §1, §3
Crabgrass--Digitaria sanguinalis
as §4, §5

Corn = experiment: Post-emergent herbicidal test, corn; type: in vivo; set-up: key: 1: no perceptible injury; 2: intermediate degrees of injury; 3: intermediate degrees of injury; 4: intermediate degrees of injury; 5: the plant was dead; conditions: Table II; 2500 parts per million, after ten days
Protocol: as §1, §2

Mustard = experiment: Preliminary herbicide seed germination test (pre-emergent), mustard; type: in vivo, Brassica pincea var. foliosa (Florida broadleaf); set-up: key: 5: no seedling emerged; 4: few seedlings emerged and/or very severe stunting; 3: moderate reduction in stand and/or moderate stunting.; 2: very slight reduction in stand and/or slight stunting; 1: no injury, seedlings appear no different with respect to stand or growth than untreated controls; conditions: Table II; ten to twelve days after application
Protocol: as §1, §3
Mustard--Brassica pincea var. foliosa (Florida broadleaf)
as §4, §5

[2] = tested on: egg of the two-spotted mite; experiment: Mite Ovicide Test (eggs); type: in vivo, Tetranychus urticae (Koch); set-up: key to Miticidal, Egg: A: Excellent Control; B: Partial Control; No Control; conditions: Table II; unhatched eggs after four days
Protocol: Suspensions of the test compounds were prepared by dissolving one gram of compound in 50 milliliters of acetone in which had been dissolved 0.1 gram (10 percent of the weight of compound) of an alkylphenoxyethanol sufactant, as an emulsifying or dispersing agent. The resulting solution was mixed into 160 milliliters of water to give roughly 200 milliliters of a suspension containing the compound in finely divided form. The thus prepared stock suspension contained 0.5 percent by weight of compound. The test concentrations employed in the tests described below were obtained by diluting the stock suspension with water. The test procedures were as follows: The test organism was the egg of the two-spotted mite (Tetranychus urticae (Koch)), as obtained from adults reared on […] bean plants under controlled conditions of 80±5° F. and 50±5 percent relative humidity. Heavily infested leaves from a stock culture were placed on the primary leaves of two bean plants six to eight inches in height growing in a two-and-a-half inch clay pot. Females were allowed to oviposit for a period of 48 hours and the leaves of the infested plants were dipped in a solution containing 800 parts of tetraethyl pyrophosphate per million parts of water in order to destroy the reproductory forms and thus prevent further egg laying. […] The plants were allowed to dry thoroughly. The test compounds were formulated by diluting the stock suspension with water to give a suspension containing varying amounts of test compound per million parts of final formulation. The potted plants (one pot per compound) were placed on a revolving turntable and sprayed with 100-110 milliliters of test compound formulation by use of a DeVilbis spray gun set at 40 spig. air pressure. This application which lasted 30 seconds, was sufficient to wet the plants to run-off. As a control, 100-110 milliliters of a water solution containing acetone and emulsifier in the same concentrations as the test compound formulation, but containing no test compound, were also sprayed on plants infested with eggs. The sprayed plants were held at 80±5° F. and 50±5 percent relative humidity for four days, after which a microscopic examination was made of unhatched (dead) and hatched (living) eggs. In these tests the pesticidal activity of the compounds against mites and mite eggs was rated as follows: Tests were conducted in accordance with the procedures given at pages 17 to 21 supra. The results are expressed in the same manner as used in Table II, except with respect to miticidal activity. For mite adult and mite egg comparison purposes, results are given in parts per million (ppm) required for a 50 percent kill of mites or eggs, respectively.

SMILES | Post-emergent Herbicidal, Bean (Bean) | Pre-emergent Herbicidal, Amaranthus [1] | Pre-emergent Herbicidal, Crabgrass (Crabgrass) | Post-emergent Herbicidal, Corn (Corn) | Pre-emergent Herbicidal, Mustard (Mustard) | Miticidal, Egg [2]
CCCCC(CC)C(=O)OC1=C(c2cc(C)ccc2C)C(=O)C(C)C1 (stereo not drawn) [Compound 17] | 3 | 3 | 1 | 3 | 1 | A
CCCCCCCCCCCCCCCC(=O)OC1=C(c2cc(C)ccc2C)C(=O)C(C)C1 (stereo not drawn) [Compound 18] | 2 | 1 | 1 | 3 | 1 | A
CC(=O)OC1=C(c2ccccc2C)C(=O)C2CCCCC12 (stereo not drawn) [Compound 19, 3-acetoxy-2-(2'-methylphenyl)-4,5,6,7,8,9-hexahydro-2-indenone] | 3 | 4 | 3 | 5 | 3 | A
Cc1ccccc1C1=C(OC(=O)C(C)C)C2CCCCC2C1=O (stereo not drawn) [Compound 20] | 3 | 3 | 3 | 5 | 3 | A
CCCCC(CC)C(=O)OC1=C(c2ccccc2C)C(=O)C2CCCCC12 (stereo not drawn) [Compound 21, 3-(2-Ethylhexanoyloxy)-2-(2'-methylphenyl)-4,5,6,7,8,9-hexahydro-2-indenone] | 1 | 2 | 2 | 5 | 1 | A
Cc1ccccc1C1=C(OC(=O)C(C)(C)C)C2CCCCC2C1=O (stereo not drawn) [Compound 22] | 2 | 2 | 3 | 5 | 3 | A
CCCCCCCCCC(=O)OC1=C(c2ccccc2C)C(=O)C2CCCCC12 (stereo not drawn) [Compound 23] | 2 | 3 | 3 | 5 | 3 | A
CCCCCCCCCCCCCCCC(=O)OC1=C(c2ccccc2C)C(=O)C2CCCCC12 (stereo not drawn) [Compound 24] | 1 | 2 | 3 | 2 | 3 | A
CC(=O)OC1=C(c2ccc(C)cc2C)C(=O)C2CCCCC12 (stereo not drawn) [Compound 25] | 1 | 3 | 5 | 3 | 3 | A
CCCCC(CC)C(=O)OC1=C(c2ccc(C)cc2C)C(=O)C2CCCCC12 (stereo not drawn) [Compound 26, 3-(2-ethylhexanoyloxy)-2-(2',4'-dimethylphenyl)-4,5,6,7,8,9-hexahydro-2-indenone] | 2 | 1 | 1 | 5 | 1 | A
Cc1ccc(C2=C(OC(=O)c3ccccc3)C3CCCCC3C2=O)c(C)c1 (stereo not drawn) [Compound 27, 3-benzoyloxy-2-(2',4'-dimethylphenyl)-4,5,6,7,8,9-hexahydro-2-indenone] | 1 | 4 | 5 | 4 | 5 | A
CC(=O)OC1=C(c2cc(C)ccc2C)C(=O)C2CCCCC12 (stereo not drawn) [Compound 28] | 2 | 1 | 2 | 3 | 1 | A
Cc1ccc(C)c(C2=C(OC(=O)C(C)C)C3CCCCC3C2=O)c1 (stereo not drawn) [Compound 29] | 1 | 1 | 1 | 2 | 1 | A
CCCCC(CC)C(=O)OC1=C(c2cc(C)ccc2C)C(=O)C2CCCCC12 (stereo not drawn) [Compound 30, 3-(2-ethylhexanoyloxy)-2-(2',5'-dimethylphenyl)-4,5,6,7,8,9-hexahydro-2-indenone] | 1 | 1 | 1 | 2 | 1 | A
